Experimental data from patent US9340577B2, “HLA binding motifs and peptides and their uses” (priority 1992, dated 2016).
Read-outs that look alike come from different tables or passages of the source. No end group written: not given here.

Assays:
Test in all cases: biochemical
DRB3*0101 = DRB3*0101 (Homo sapiens, UniProt P01903+P79483); format: binding
DRB1*0301 = DRB1*0301 (Homo sapiens, UniProt P01903+P01911, A100K/A102G/A103R/A169T/F55Y/I96L/K41T/L162R/M171V/P40S/Q125H/Q178H/Q39Y/R42S/S66N/T106N/T262R/W38E/Y61H); format: binding
Sequence of DRB1*0301 (P01903 26-254 limits assumed, other chains not shown): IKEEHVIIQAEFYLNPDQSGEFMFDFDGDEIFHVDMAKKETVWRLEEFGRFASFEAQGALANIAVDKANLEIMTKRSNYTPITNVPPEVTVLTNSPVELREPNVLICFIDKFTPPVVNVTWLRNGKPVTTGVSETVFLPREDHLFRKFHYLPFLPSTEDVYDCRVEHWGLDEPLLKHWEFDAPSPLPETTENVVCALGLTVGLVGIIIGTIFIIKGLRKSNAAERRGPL

DRB1*1201 = DRB1*1201 (Homo sapiens, UniProt P01903+P01911, A100R/A169T/D57E/D86V/F55L/H45Y/K41T/L162R/M171V/P40S/Q125H/Q178H/Q39Y/Q99D/R42G/S66L/T262R/V114A/V67L/W38E/Y59H/Y61H/Y89S); format: binding
DR4w4 (DRB1*0401) = DR4w4 (DRB1*0401) (Homo sapiens, UniProt P01903+P01911, A100K/A169T/F76Y/I96L/K127E/L162R/M171V/N62H/P40V/Q125Y/R42H/S133A/S149N/S66Y/V115G/V209L/W38E); format: binding
DRB1*0901 = DRB1*0901 (Homo sapiens, UniProt P01903+P01911, A100R/A103E/D57H/D86V/F55Y/F60I/F76Y/I96F/K127E/L162R/M171V/P40D/Q125H/Q99R/R33Q/R42F/S133A/S66N/T210M/V115G/W38K/Y107V/Y59G/Y89S); format: binding
DRB1*1101 = DRB1*1101 (Homo sapiens, UniProt P01903+P01911, A100R/A169T/A87E/I96F/K41T/L162R/M171V/P40S/Q125H/Q178H/Q39Y/Q99D/R42S/S66Y/T262R/V115G/W38E)
Sequence of DRB1*1101 (P01903 26-254 limits assumed, other chains not shown): as above

DRB4*0101 = DRB4*0101 (Homo sapiens, UniProt P01903+P13762, G164S); format: binding
DRB1*1302 = DRB1*1302 (Homo sapiens, UniProt P01903+P01911, A100E/A169T/K41T/L162R/M171V/P40S/Q125H/Q178H/Q39Y/Q99D/R42S/S66N/T262R/V115G/W38E/Y61H); format: binding
Sequence of DRB1*1302 (P01903 26-254 limits assumed, other chains not shown): as above

DRB1*0405 = DRB1*0405 (Homo sapiens, UniProt P01903+P01911, A100R/A169T/D86S/F76Y/I96L/K127E/L162R/M171V/N62H/P40V/Q125Y/R42H/S133A/S149N/S66Y/V115G/V209L/W38E); format: binding
DR1 (DRB1*0101) = DR1 (DRB1*0101) (Homo sapiens, UniProt P01903+P01911, A100R/D57E/F55L/F60I/F76Y/I96L/L162R/M171V/P40L/Q125E/R42F/V115G/Y59C); format: binding
DRB1*0802 = DRB1*0802 (Homo sapiens, UniProt P01903+P01911, A100R/A103L/A169T/F76Y/H45Y/I96F/K41T/L162R/M171V/P40S/Q125H/Q178H/Q39Y/Q99D/R218S/R42G/S66Y/V115G/W38E); format: binding
DRB1*1501 = DRB1*1501 (Homo sapiens, UniProt P01903+P01911); format: binding
DRB5*0101 = DRB5*0101 (Homo sapiens, UniProt P01903+Q30154)
DR7 (DRB1*0701) = DR7 (DRB1*0701) (Homo sapiens, UniProt P01903+P01911, A100R/A102G/A103Q/D57E/D86V/E43K/F76Y/K127E/L162R/M171V/P40G/Q125H/Q99D/R33Q/R42Y/R54Q/S133A/S66F/T210M/V115G/Y107V/Y59L/Y89S); format: binding

Compound | IC50 (DRB3*0101) [µM] | IC50 (DRB1*0301) [µM] | IC50 (DRB1*1201) [µM] | IC50 (DR4w4 (DRB1*0401)) [µM] | IC50 (DRB1*0901) [µM] | IC50 (DRB1*1101; Binding affinity DRB1 *1101) [µM] | IC50 (DRB4*0101) [µM] | IC50 (DRB1*1302) [µM] | IC50 (DRB1*0405) [µM] | IC50 (DR1 (DRB1*0101)) [µM] | IC50 (DRB1*0802) [µM] | IC50 (DRB1*1501) [µM] | IC50 (DRB5*0101; Binding affinity DRB5 *0101) [µM] | IC50 (DR7 (DRB1*0701)) [µM] | IC50 (DRB1*1101) [µM] | IC50 (DRB5*0101) [µM]
CC[C@H](C)[C@H](NC(=O)[C@@H](NC(=O)[C@@H]1CCCN1C(=O)CN)C(C)C)C(=O)N1CCC[C@H]1C(=O)N[C@@H](CCC(N)=O)C(=O)N[C@@H](CC(=O)O)C(=O)N[C@@H](Cc1c[nH]c2ccccc12)C(=O)N[C@@H](CO)C(=O)N[C@H](C(=O)N[C@@H](CCC(=O)O)C(=O)N[C@@H](CS)C(=O)N[C@@H](CCSC)C(=O)N[C@H](C(=O)N[C@H](C(=O)O)[C@@H](C)O)[C@@H](C)O)[C@@H](C)O [Peptide 68.0156] | > 20 | > 20 | > 20 |  |  |  |  |  |  |  |  |  |  |  |  | 
CC(C)C[C@H](NC(=O)[C@H](Cc1ccccc1)NC(=O)CNC(=O)[C@H](CC(C)C)NC(=O)[C@H](CO)NC(=O)[C@H](CC(C)C)NC(=O)[C@H](CO)NC(=O)[C@H](C)NC(=O)[C@H](C)NC(=O)[C@H](CCCNC(=N)N)NC(=O)[C@H](C)NC(=O)[C@H](CC(C)C)NC(=O)[C@H](CC(C)C)NC(=O)[C@H](CC(C)C)NC(=O)[C@@H]1CCCN1)C(=O)O [Peptide 68.0021] | > 20 | > 20 | 1.51 |  |  |  |  |  |  |  |  |  |  |  |  | 
DSVDSVNCGVISAAA [Peptide 1601.24] | > 20 | > 20 |  | 1.28 | 6.73 | > 20 | 8.71 | 0.736 | 13.6 | 0.916 | > 20 | > 20 | > 20 | 2.14 |  | 
TTPIIHKLGDRNSLK [Peptide 1601.17] | 11 | 0.501 |  | 0.392 | > 20 |  | 0.019 | 1.48 | 19 | 0.085 | 0.419 | 0.382 |  | > 20 | 4.8 | 5.57
CC[C@H](C)[C@H](NC(=O)[C@H](Cc1c[nH]c2ccccc12)NC(=O)[C@@H](NC(=O)[C@@H](N)C(C)C)[C@@H](C)O)C(=O)NCC(=O)N[C@@H](C)C(=O)N[C@@H](C)C(=O)N1CCC[C@H]1C(=O)N[C@@H](CC(C)C)C(=O)N[C@H](C(=O)N[C@@H](CC(C)C)C(=O)N[C@@H](CO)C(=O)N[C@@H](CCCNC(=N)N)C(=O)N[C@H](C(=O)N[C@H](C(=O)O)C(C)C)[C@@H](C)CC)[C@@H](C)CC [Peptide 68.0060] | > 20 | > 20 | 0.818 |  |  |  |  |  |  |  |  |  |  |  |  | 
GVNHQHLPARRAEPQ [Peptide 1543.05] | > 20 | > 20 |  | > 20 | > 20 | > 20 | 14.6 | > 20 | > 20 | 0.276 | > 20 | > 20 | > 20 | 16.8 |  | 
CC(C)C[C@H](NC(=O)[C@H](CCC(N)=O)NC(=O)[C@H](CCCCN)NC(=O)[C@@H](NC(=O)[C@H](CC(C)C)NC(=O)[C@H](CCC(N)=O)NC(=O)[C@@H](NC(=O)[C@H](C)NC(=O)[C@H](CO)NC(=O)[C@@H](NC(=O)[C@@H](NC(=O)[C@H](CC(=O)O)NC(=O)[C@H](CC(=O)O)NC(=O)[C@@H](N)CO)[C@@H](C)O)C(C)C)[C@@H](C)O)C(C)C)C(=O)N[C@@H](CCC(N)=O)C(=O)O [Peptide 1601.13] | > 20 | 10.5 |  | 9.55 |  | 15.6 | 0.026 | 16.5 | 16.3 | 7.24 | 19.3 | > 20 | > 20 | 7.67 |  | 
EVFFQRLGIASGRAR [Peptide 68.0115] | > 20 | > 20 | 2.94 |  |  |  |  |  |  |  |  |  |  |  |  | 
CC(C)C[C@H](NC(=O)[C@@H](NC(=O)CN)C(C)C)C(=O)N[C@H](C(=O)N[C@@H](Cc1c[nH]cn1)C(=O)N1CCC[C@H]1C(=O)N[C@@H](CCC(N)=O)C(=O)N[C@@H](Cc1c[nH]c2ccccc12)C(=O)N[C@H](C(=O)N[C@@H](CC(C)C)C(=O)N[C@H](C(=O)N[C@@H](C)C(=O)N[C@@H](C)C(=O)N[C@@H](Cc1c[nH]cn1)C(=O)N[C@@H](CS)C(=O)O)[C@@H](C)O)C(C)C)C(C)C [Peptide 68.0063] | > 20 | > 20 | 7.49 |  |  |  |  |  |  |  |  |  |  |  |  | 
LKGDANILKCLRYRL [Peptide 1601.26] | 3.19 | 0.052 |  | 5.59 | > 20 | 5.53 | 6.22 | 6.9 | 3.14 | 17.2 |  | 0.609 | > 20 | 9.02 |  | 
PCHTTKLLHRDSVDS [Peptide 1601.07] | > 20 | 7.26 |  | > 20 | > 20 | 2.96 | 0.672 | > 20 | > 20 | > 20 | 2.78 | > 20 | > 20 | > 20 |  | 
NTTPIIHLKGDKNSL [Peptide 1601.37] | > 20 | 7.48 |  | 11.9 | > 20 | > 20 | 0.075 | 5.44 | > 20 | 0.86 | 1.9 | 11.4 | > 20 | 18.8 |  | 
CC(C)C[C@H](NC(=O)[C@@H](NC(=O)[C@H](CCC(N)=O)NC(=O)[C@H](Cc1c[nH]c2ccccc12)NC(=O)[C@@H]1CCCN1C(=O)[C@H](CCC(N)=O)NC(=O)[C@@H](N)CO)C(C)C)C(=O)N[C@H](C(=O)N[C@@H](C)C(=O)N[C@@H](CO)C(=O)N[C@@H](CCCNC(=N)N)C(=O)NCC(=O)N[C@@H](CCCNC(=N)N)C(=O)N[C@@H](C)C(=O)N[C@H](C(=O)O)C(C)C)C(C)C [Peptide 68.0061] | > 20 | > 20 | 8.78 |  |  |  |  |  |  |  |  |  |  |  |  | 
CC[C@H](C)[C@H](NC(=O)[C@@H]1CCCN1C(=O)[C@@H](N)CC(N)=O)C(=O)N[C@@H](CC(C)C)C(=O)N[C@@H](CC(C)C)C(=O)N[C@@H](Cc1c[nH]c2ccccc12)C(=O)N[C@@H](CCC(N)=O)C(=O)N1CCC[C@H]1C(=O)N[C@H](C(=O)N1CCC[C@H]1C(=O)N[C@H](C(=O)N[C@@H](Cc1c[nH]cn1)C(=O)N[C@H](C(=O)N[C@H](C(=O)N1CCC[C@H]1C(=O)O)C(C)C)[C@@H](C)O)C(C)C)[C@@H](C)CC [Peptide 68.0036] | > 20 | > 20 | 0.612 |  |  |  |  |  |  |  |  |  | > 20 |  |  | 
LSQRLNVCQDKILEH [Peptide 1601.21] | > 20 | 0.21 |  | > 20 | > 20 | > 20 | 5.03 | > 20 | 4.63 | > 20 | > 20 | > 20 | > 20 | > 20 |  | 
